Measurements from patent US10947229B2, “Dimethyl amino azetidine amides as JAK inhibitors” (THERAVANCE BIOPHARMA R&D IP, LLC, priority 2018, dated 2021).

Assays:
Lung S9 metabolism = format: in vitro ADME, human; conditions: for Compound Remaining at 60 min (%) / microsomal CLint at 1 µM: human lung S9, 1 μM compound, 1 mg/mL S9 protein; for Sulfate Appearance: human lung S9, qualitative O-sulfate metabolite peak; for microsomal CLint at 1 µM: human lung S9 fraction, pH 7.4, NADPH and PAPS, read-out: Clearance
Method: The time 0, 15, 30, and 60 minute samples were analyzed for parent compound by high resolution LC-MS/MS. Lung S9 fractions from human (lot 1410245) were purchased from XenoTech LLC (Lenexa, Kans.). NADPH (Sigma Aldrich, N1630) and 3-phosphoadenosine 5-phosphosulfate (PAPS) (Sigma Aldrich, A1651) were purchased from Sigma Aldrich (St. Louis, Mo.). Acetonitrile and water were obtained from VWR (Radnor, Pa.) and were of HPLC grade or better. Raloxifene and formic acid was purchased from Sigma Aldrich (St. Louis, Mo.). Lung S9 incubations were performed in a water bath at 37° C. in a 96-well polypropylene plate. […] Louis, Mo.), 3 mM magnesium chloride (Sigma Aldrich, M1028) and in the presence of 100 μM PAPS (Sigma-Aldrich, St. […] Incubation volumes consisted of 400 μL and time points were taken at 0, 15, 30, and 60 minutes by the removal of a 70 μL aliquot and dilution into 140 μL acetonitrile (0% formic acid). All samples were centrifuged at 2250 g for 10 minutes at 5° C. Supernatant […] was taken from the centrifuged samples and diluted into 100 μL HPLC water containing internal standard. The samples were run on a Dionex Ultimate 3000 Auto sampler and analyzed using a Thermo Q-Exactive High Resolution Mass Spectrometer (Thermo, Waltham, Mass.) in Full Scan mode in conjunction with an Atlantis T3 column 3 μM-2.1×50 mm (Waters Inc., 186003717). Mobile Phase A consisted of Water+0.2% formic acid and Mobile Phase B consisted of acetonitrile +0.2% formic acid. Peak integration was accomplished using Gubbs GMSU software (Gubbs Inc., Alpharetta, Ga.). For each sample, peak area ratios were calculated by dividing the analyte peak area by the internal standard peak area. For each incubation, the peak area ratios of the analytes in each t0 was set to 100%, and the peak areas ratios from the 60 minute samples were converted to percentages remaining relative to the corresponding t0. Determination of sulfate metabolite formation was made qualitatively by observation of early-eluting peak in the parent ion channel which, based on historical internal data, corresponded to the O-sulfate metabolite of each parent compound.

JAK1 = JAK1 (Homo sapiens (Human), UniProt P23458); assay: Biochemical JAK kinase assay (LanthaScreen), JAK1; conditions: read-out: JAK1 pKi (converted)
Chain of JAK1 (P23458 whole entry): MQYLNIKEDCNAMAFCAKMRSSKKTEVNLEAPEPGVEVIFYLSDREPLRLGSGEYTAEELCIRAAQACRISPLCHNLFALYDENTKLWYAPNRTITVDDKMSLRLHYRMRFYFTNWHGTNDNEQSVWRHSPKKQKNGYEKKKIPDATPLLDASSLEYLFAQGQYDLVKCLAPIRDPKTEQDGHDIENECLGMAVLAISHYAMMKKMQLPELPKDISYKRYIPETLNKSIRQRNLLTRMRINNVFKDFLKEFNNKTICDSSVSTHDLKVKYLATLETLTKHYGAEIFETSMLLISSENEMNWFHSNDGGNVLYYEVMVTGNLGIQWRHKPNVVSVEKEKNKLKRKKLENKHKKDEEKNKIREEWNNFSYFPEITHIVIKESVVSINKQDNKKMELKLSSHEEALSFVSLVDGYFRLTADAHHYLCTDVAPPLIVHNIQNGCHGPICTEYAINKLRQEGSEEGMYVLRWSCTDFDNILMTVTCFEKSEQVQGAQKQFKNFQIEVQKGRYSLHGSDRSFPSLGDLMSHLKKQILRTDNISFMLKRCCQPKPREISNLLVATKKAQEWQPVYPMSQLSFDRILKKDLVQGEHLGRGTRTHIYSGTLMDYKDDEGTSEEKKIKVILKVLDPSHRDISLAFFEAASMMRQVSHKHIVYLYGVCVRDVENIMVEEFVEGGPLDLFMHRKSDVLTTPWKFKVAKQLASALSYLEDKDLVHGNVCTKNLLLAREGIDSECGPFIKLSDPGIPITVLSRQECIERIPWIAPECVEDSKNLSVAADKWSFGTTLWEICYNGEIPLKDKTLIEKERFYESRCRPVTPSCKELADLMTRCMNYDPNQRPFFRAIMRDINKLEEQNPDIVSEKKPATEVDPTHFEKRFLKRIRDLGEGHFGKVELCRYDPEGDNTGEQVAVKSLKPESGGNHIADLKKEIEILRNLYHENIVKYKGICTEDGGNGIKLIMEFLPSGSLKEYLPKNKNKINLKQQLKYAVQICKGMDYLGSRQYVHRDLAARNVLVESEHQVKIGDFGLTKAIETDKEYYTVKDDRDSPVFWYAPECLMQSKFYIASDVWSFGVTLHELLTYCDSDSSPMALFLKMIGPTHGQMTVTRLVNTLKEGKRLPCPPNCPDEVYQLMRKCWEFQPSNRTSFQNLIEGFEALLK
Method: (§1) Recombinant GST-tagged JAK enzymes and a GFP-tagged STAT1 peptide substrate were obtained from Life Technologies. Serially diluted compounds were pre-incubated with each of the four JAK enzymes and the substrate in white 384-well microplates (Corning) at ambient temperature for 1 h. ATP was subsequently added to initiate the kinase reactions in 10 μL total volume, with 1% DMSO. […] Kinase reactions were allowed to proceed for 1 hour at ambient temperature before a 10 μL preparation of EDTA (10 mM final concentration) and Tb-anti-pSTAT1 ([…]) antibody (Life Technologies, 2 nM final concentration) in TR-FRET dilution buffer (Life Technologies) was added. The plates were allowed to incubate at ambient temperature for 1 h before being read on the EnVision reader (Perkin Elmer). Emission ratio signals (520 nm/495 nm) were recorded and utilized to calculate the percent inhibition values based on DMSO and background controls. For dose-response analysis, percent inhibition data were plotted vs. compound concentrations, and IC50 values were determined from a 4-parameter robust fit model with the Prism software (GraphPad Software). Results were expressed as pIC50 (negative logarithm of IC50) and subsequently converted to pKi (negative logarithm of dissociation constant, Ki) using the Cheng-Prusoff equation.

JAK2 = JAK2 (Homo sapiens (Human), UniProt O60674); assay: Biochemical JAK kinase assay (LanthaScreen), JAK2; conditions: for Ki: read-out: JAK2 pKi (converted)
Chain of JAK2 (O60674 whole entry): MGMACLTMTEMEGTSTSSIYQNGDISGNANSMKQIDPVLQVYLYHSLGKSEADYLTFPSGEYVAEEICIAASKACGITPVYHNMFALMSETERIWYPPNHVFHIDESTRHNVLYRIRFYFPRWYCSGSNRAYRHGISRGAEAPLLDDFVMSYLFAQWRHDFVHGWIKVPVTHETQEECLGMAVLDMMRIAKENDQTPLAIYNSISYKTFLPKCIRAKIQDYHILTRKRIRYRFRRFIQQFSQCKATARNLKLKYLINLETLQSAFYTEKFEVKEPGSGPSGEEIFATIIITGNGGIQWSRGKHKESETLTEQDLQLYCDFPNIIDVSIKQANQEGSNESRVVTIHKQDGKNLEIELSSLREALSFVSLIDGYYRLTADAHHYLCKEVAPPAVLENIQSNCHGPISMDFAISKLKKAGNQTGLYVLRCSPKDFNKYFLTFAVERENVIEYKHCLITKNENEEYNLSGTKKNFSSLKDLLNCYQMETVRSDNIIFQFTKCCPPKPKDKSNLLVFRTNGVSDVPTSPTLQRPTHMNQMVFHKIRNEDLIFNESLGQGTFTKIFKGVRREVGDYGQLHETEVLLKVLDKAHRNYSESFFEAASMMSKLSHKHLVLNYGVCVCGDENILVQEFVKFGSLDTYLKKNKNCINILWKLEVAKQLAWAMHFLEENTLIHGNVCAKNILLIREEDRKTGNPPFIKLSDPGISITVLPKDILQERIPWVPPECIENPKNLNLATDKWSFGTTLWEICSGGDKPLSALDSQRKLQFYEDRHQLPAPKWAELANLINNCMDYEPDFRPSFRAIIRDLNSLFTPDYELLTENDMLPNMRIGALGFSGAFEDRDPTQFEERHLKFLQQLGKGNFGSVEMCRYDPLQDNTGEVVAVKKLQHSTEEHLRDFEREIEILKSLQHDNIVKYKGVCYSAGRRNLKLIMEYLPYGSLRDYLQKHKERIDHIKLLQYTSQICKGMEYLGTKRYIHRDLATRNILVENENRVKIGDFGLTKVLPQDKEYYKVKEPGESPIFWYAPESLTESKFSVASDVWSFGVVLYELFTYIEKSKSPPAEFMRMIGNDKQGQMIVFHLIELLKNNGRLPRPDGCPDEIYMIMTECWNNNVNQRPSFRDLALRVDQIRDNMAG
Method: as §1, with “equation. Test compounds having a lower Ki value or higher pKi value in the four JAK assays show greater inhibition of JAK activity.” for “equation.”

Tyk2 = Tyk2 (Homo sapiens (Human), UniProt P29597); assay: Biochemical JAK kinase assay (LanthaScreen), Tyk2
Chain of Tyk2 (P29597 whole entry): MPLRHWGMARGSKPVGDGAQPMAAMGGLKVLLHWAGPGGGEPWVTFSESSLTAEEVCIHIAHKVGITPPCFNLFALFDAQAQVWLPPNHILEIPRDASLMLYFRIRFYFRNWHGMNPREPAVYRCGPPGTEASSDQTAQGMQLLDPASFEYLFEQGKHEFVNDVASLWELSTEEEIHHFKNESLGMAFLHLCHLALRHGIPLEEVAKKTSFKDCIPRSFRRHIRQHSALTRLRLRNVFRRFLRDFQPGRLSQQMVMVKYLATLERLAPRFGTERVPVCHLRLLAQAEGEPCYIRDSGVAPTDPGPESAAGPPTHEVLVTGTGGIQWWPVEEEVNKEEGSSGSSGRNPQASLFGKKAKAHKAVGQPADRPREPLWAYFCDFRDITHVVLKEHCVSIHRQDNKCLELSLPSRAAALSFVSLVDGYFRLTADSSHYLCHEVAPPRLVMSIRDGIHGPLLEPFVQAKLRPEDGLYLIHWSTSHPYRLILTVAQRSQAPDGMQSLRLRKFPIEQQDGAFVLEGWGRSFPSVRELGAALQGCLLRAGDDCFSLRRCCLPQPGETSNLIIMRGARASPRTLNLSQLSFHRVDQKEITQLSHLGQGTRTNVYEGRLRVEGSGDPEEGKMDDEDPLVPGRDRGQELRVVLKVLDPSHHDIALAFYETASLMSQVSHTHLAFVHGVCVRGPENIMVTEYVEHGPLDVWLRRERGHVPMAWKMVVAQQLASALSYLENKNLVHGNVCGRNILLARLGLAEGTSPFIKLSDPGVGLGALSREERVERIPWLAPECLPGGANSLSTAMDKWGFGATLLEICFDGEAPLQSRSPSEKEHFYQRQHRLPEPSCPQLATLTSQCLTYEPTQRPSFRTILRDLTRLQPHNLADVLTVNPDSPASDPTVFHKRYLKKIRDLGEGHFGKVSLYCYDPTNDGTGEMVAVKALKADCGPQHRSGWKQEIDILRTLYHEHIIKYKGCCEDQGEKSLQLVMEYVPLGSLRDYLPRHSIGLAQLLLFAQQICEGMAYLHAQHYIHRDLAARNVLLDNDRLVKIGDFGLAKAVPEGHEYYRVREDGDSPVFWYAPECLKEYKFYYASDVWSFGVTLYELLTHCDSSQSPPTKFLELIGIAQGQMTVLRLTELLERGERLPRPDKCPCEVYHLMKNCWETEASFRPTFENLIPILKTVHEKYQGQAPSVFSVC
Method: as §1

[1] = system: IL-2 stimulated pSTAT5 in Tall-1 T cells; assay: Inhibition of IL-2 stimulated pSTAT5 in Tall-1 T cells; format: cell-based; conditions: IL-2 stimulated pSTAT5, Tall-1 human T cell line; read-out: Tall-1 pIC50 (converted)
Method: The potency of test compounds for inhibition of interleukin-2 (IL-2) stimulated STAT5 phosphorylation was measured in the Tall-1 human T cell line (DSMZ) using AlphaLisa. Because IL-2 signals through JAK1/3, this assay provides a measure of JAK1/3 cellular potency.
Phosphorylated STAT5 was measured via the AlphaLISA SureFire Ultra pSTAT5 (Tyr694/699) kit (PerkinElmer).
Human T cells from the Tall-1 cell line were cultured in a 37° C., 5% CO2 humidified incubator in RPMI (Life Technologies) supplemented with 15% Heat Inactivated Fetal Bovine Serum (FBS, Life Technologies), 2 mM Glutamax (Life Technologies), 25 mM HEPES (Life Technologies) and 1× Pen/Strep (Life Technologies). Compounds were serially diluted in DMSO and dispensed acoustically to empty wells. Assay media (phenol red-free DMEM (Life Technologies) supplemented with 10% FBS (ATCC)) was dispensed (4 μL/well) and plates shaken at 900 rpm for 10 mins. Cells were seeded at 45,000 cells/well in assay media (4 μL/well), and incubated at 37° C., 5% CO2 for 1 hour, followed by the addition of IL-2 (R&D Systems; final concentration 300 ng/mL) in pre-warmed assay media (4 μL) for 30 minutes. After cytokine stimulation, cells were lysed with 6 ul of 3× AlphaLisa Lysis Buffer (PerkinElmer) containing 1× PhosStop and Complete tablets (Roche). The lysate was shaken at 900 rpm for 10 minutes at room temperature (RT). Phosphorylated STAT5 was measured via the pSTAT5 AlphaLisa kit (PerkinElmer). Freshly prepared acceptor bead mixture was dispensed onto lysate (5 μL) under green filtered <100 lux light. Plates were shaken at 900 rpm for 2 mins, briefly spun down, and incubated for 2 hrs at RT in the dark. Donor beads were dispensed (5 μL) under green filtered <100 lux light. Plates were shaken at 900 rpm for 2 minutes, briefly spun down, and incubated overnight at RT in the dark. Luminescence was measured with excitation at 689 nm and emission at 570 nm using an EnVision plate reader (PerkinElmer) under green filtered <100 lux light.
To determine the inhibitory potency of test compounds in response to IL-2, the average emission intensity of beads bound to pSTAT5 was measured in a human T cell line. IC50 values were determined from analysis of the inhibition curves of signal intensity versus compound concentration. Data are expressed as pIC50 (negative decadic logarithm IC50) values (mean±standard deviation).

Row | SMILES | Compound Remaining at 60 min (%) (Lung S9 metabolism) | Sulfate Appearance (Lung S9 metabolism) | microsomal CLint at 1 µM (Lung S9 metabolism) [µL/min/mg] | Ki (JAK1) [nM] | Ki (JAK2) [nM] | JAK2 pKi (JAK2) | Tyk2 pKi (Tyk2) | IC50 [1] [nM]
1 | CCc1cc(O)ccc1-c1ccc2c(-c3nc4c([nH]3)CN(CC)[C@H](C(=O)N3CC(N(C)C)C3)C4)n[nH]c2c1 [Compound 2, (S)-(3-(dimethylamino)azetidin-1-yl)(5-ethyl-2-(6-(2-ethyl-4-hydroxyphenyl)-1H-indazol-3-yl)-4,5,6,7-tetrahydro-3H-imidazo[4,5-c]pyridin-6-yl)methanone] | 98 | Yes | 0.6 | – | – | – | – | –
2 | CCc1cc(O)ccc1-c1ccc2c(-c3nc4c([nH]3)CN(CC)[C@H](C(=O)N3CC(C)(N(C)C)C3)C4)n[nH]c2c1 [Compound 3, (S)-(3-(dimethylamino)-3-methylazetidin-1-yl)(5-ethyl-2-(6-(2-ethyl-4-hydroxyphenyl)-1H-indazol-3-yl)-4,5,6,7-tetrahydro-3H-imidazo[4,5-c]pyridin-6-yl)methanone] | 97 | Yes | 0.8 | – | – | – | – | –
3 | CCc1cc(O)ccc1-c1ccc2c(-c3nc4c([nH]3)CN(C(C)C)[C@H](C(=O)N3CC(C)(N(C)C)C3)C4)n[nH]c2c1 [Compound 4, (S)-(3-(dimethylamino)-3-methylazetidin-1-yl)(2-(6-(2-ethyl-4-hydroxyphenyl)-1H-indazol-3-yl)-5-isopropyl-4,5,6,7-tetrahydro-3H-imidazo[4,5-c]pyridin-6-yl)methanone] | 100 | Yes | – | – | – | – | – | –
4 | CCc1cc(O)c(F)cc1-c1ccc2c(-c3nc4c([nH]3)CN(CC)[C@H](C(=O)N3CC(C)(N(C)C)C3)C4)n[nH]c2c1 [Compound C-3, (S)-(3-(dimethylamino)-3-methylazetidin-1-yl)(5-ethyl-2-(6-(2-ethyl-5-fluoro-4-hydroxyphenyl)-1H-indazol-3-yl)-4,5,6,7-tetrahydro-3H-imidazo[4,5-c]pyridin-6-yl)methanone] | 5 | Yes | 50.6 | – | – | 10.9 | 9.4 | 2
5 | CCc1cc(O)c(F)cc1-c1ccc2c(-c3nc4c([nH]3)CN(C(C)C)[C@H](C(=O)N3CC(C)(N(C)C)C3)C4)n[nH]c2c1 [Compound C-4, (S)-(3-(dimethylamino)-3-methylazetidin-1-yl)(2-(6-(2-ethyl-5-fluoro-4-hydroxyphenyl)-1H-indazol-3-yl)-5-isopropyl-4,5,6,7-tetrahydro-3H-imidazo[4,5-c]pyridin-6-yl)methanone] | 4 | Yes | 53.2 | 0.0794 | 0.0126 | – | – | 2.51
6 | CCCN1Cc2[nH]c(-c3n[nH]c4cc(-c5cc(F)c(O)cc5CC)ccc34)nc2C[C@H]1C(=O)N1CC(C)(N(C)C)C1 [Compound C-6, (S)-(3-(dimethylamino)-3-methylazetidin-1-yl)(2-(6-(2-ethyl-5-fluoro-4-hydroxyphenyl)-1H-indazol-3-yl)-5-propyl-4,5,6,7-tetrahydro-3H-imidazo[4,5-c]pyridin-6-yl)methanone] | 4 | Yes | 53.5 | – | – | 10.7 | – | 2.51

Further lines, with some results ahead:

Row | Compound Remaining at 60 min (%) (Lung S9 metabolism) | Sulfate Appearance (Lung S9 metabolism) | microsomal CLint at 1 µM (Lung S9 metabolism) [µL/min/mg] | SMILES | Ki (JAK1) [nM] | Ki (JAK2) [nM] | JAK2 pKi (JAK2) | Tyk2 pKi (Tyk2) | IC50 [1] [nM]
7 | 96 | Yes | 1.6 | CCCN1Cc2[nH]c(-c3n[nH]c4cc(-c5ccc(O)cc5CC)ccc34)nc2C[C@H]1C(=O)N1CC(N(C)C)C1 [Compound 5, (S)-(3-(dimethylamino)azetidin-1-yl)(2-(6-(2-ethyl-4-hydroxyphenyl)-1H-indazol-3-yl)-5-propyl-4,5,6,7-tetrahydro-3H-imidazo[4,5-c]pyridin-6-yl)methanone] | 0.0316 | – | – | – | –
8 | 90 | Yes | 1.8 | CCCN1Cc2[nH]c(-c3n[nH]c4cc(-c5ccc(O)cc5CC)ccc34)nc2C[C@H]1C(=O)N1CC(C)(N(C)C)C1 [Compound 6, (S)-(3-(dimethylamino)-3-methylazetidin-1-yl)(2-(6-(2-ethyl-4-hydroxyphenyl)-1H-indazol-3-yl)-5-propyl-4,5,6,7-tetrahydro-3H-imidazo[4,5-c]pyridin-6-yl)methanone] | – | 0.0316 | – | – | –
9 | 6 | Yes | 49 | CCc1cc(O)c(F)cc1-c1ccc2c(-c3nc4c([nH]3)CN(C(C)C)[C@H](C(=O)N3CC(N(C)C)C3)C4)n[nH]c2c1 [Compound C-1, (S)-(3-(dimethylamino)azetidin-1-yl)(2-(6-(2-ethyl-5-fluoro-4-hydroxyphenyl)-1H-indazol-3-yl)-5-isopropyl-4,5,6,7-tetrahydro-3H-imidazo[4,5-c]pyridin-6-yl)methanone] | – | – | – | – | –
